The results in this text go back to PubChem BioAssay AID1996.

≈ marks a conversion by molar mass, not a printed value. Where only a bound is given, the exact number is not on record here.

The conditions of this data set: buffer; pH 7.4; 200.0 µM.
Consider `CC(=O)Nc1ccc(C(=O)N2CC(=O)NC(=O)C2)cc1`, for which the kinetic solubility was > 41.3 µg/mL.

Consider `C#CCn1c(=O)cc(C)c2ccccc21`, for which the kinetic solubility was > 29.6 µg/mL.

In turn, `COc1ccc(NC(=O)Cc2c(Cl)cccc2Cl)cn1` gave a kinetic solubility of 6.2 µg/mL (≈ 19.9 µM).

For the compound `COc1ccc(NC(=O)CN2C(=O)C(C)Oc3ccc(C)cc32)cc1` (stereo unspecified), the kinetic solubility came to 9.6 µg/mL (≈ 28.2 µM).

Consider `COc1ccc(S(=O)(=O)N2CCN(c3cnccn3)CC2)cc1`, for which the solubility (kinetic) is > 50.2 µg/mL.

With `CCc1ccc(CNC(=O)C2CC(=O)N(C3CCCC3)C2)cc1` (stereo unspecified), the kinetic solubility is > 47.2 µg/mL.

Regarding `COc1ccc(NC(=O)COc2ccc3c(c2)OCO3)cc1`, the kinetic solubility amounted to 39.5 µg/mL (≈ 131 µM).

In the case of `Cc1cc2oc(C(=O)NCc3ccccc3)cc(=O)c2cc1C`, the solubility (kinetic) was 0.9 µg/mL (≈ 2.93 µM).

Turning to `O=C(COC(=O)c1ccc([N+](=O)[O-])o1)NCc1ccc2c(c1)OCO2`, the solubility (kinetic) is > 52.2 µg/mL.

Turning to `COc1ccc(CC(=O)N2CCC(c3ccccc3)C2)cc1` (stereo unspecified), the solubility (kinetic) stood at 40.8 µg/mL (≈ 138 µM).

As for `CCOc1ccc(S(=O)(=O)Nc2cc(NS(=O)(=O)c3ccc(OCC)cc3)cc(C(=O)O)c2)cc1`, the solubility (kinetic) is > 78.1 µg/mL.

For `CCCCCn1c(=O)c(C(=O)Nc2cccc(C)c2)c(O)c2ccccc21`, the solubility (kinetic) was < 0.4 µg/mL.

Regarding `CC1(C)Cc2c(C#N)c(N)n(-c3ccccc3)c(=S)c2CO1`, the solubility (kinetic) was > 46.7 µg/mL.

As to `CC(=O)N1CCN(C(=O)c2ccc(Cl)c(S(=O)(=O)N3CC(C)OC(C)C3)c2)CC1` (stereo unspecified), the kinetic solubility was > 66.6 µg/mL.

In the case of `CC1CC(C)CN(C(=O)COC(=O)CCC(=O)c2cccs2)C1` (stereo unspecified), the kinetic solubility was > 50.6 µg/mL.

`O=S(=O)(c1ccc(=S)[nH]c1)N1CCN(Cc2ccccc2)CC1`: the kinetic solubility is > 52.4 µg/mL.

With `CCC(C)NC(=O)Cn1nc(C(F)(F)F)c2c1CCC2` (stereo unspecified), the kinetic solubility is > 43.4 µg/mL.

`NC(=O)NC(=O)COC(=O)c1sc2ccccc2c1Cl` gave a solubility (kinetic) of 1.2 µg/mL (≈ 3.84 µM).

As for `COc1cccc(NC(=O)COC(=O)CC2CC3CCC2C3)c1` (stereo unspecified), the solubility (kinetic) came to 24.1 µg/mL (≈ 75.9 µM).

Regarding `CC1CN(S(=O)(=O)c2ccc(C(=O)N(C)C3CCCCC3)cc2)CC(C)O1` (stereo unspecified), the solubility (kinetic) was > 59.2 µg/mL.

As for `Cc1ccc(NC(=S)NCCc2c[nH]c3ccccc23)c(C)c1`, the solubility (kinetic) stood at 20.4 µg/mL (≈ 63.1 µM).

`c1cc2c3c(cccc3c1)C(N1CCOCC1)=N2` showed a solubility (kinetic) of 34.8 µg/mL (≈ 146 µM).

With `Cc1ccc(S(=O)(=O)N2CCN(C(C)CC(=O)O)CC2)cc1` (stereo unspecified), the solubility (kinetic) is 32.9 µg/mL (≈ 101 µM).

On to `COc1ccccc1CC(=O)Nc1ccon1`, for which the kinetic solubility is > 34.8 µg/mL.

As for `CC(=O)Nc1ccc(NC(=O)Cn2ccc([N+](=O)[O-])n2)cc1`, the kinetic solubility is > 45.5 µg/mL.

For `O=C(O)CNC(=S)N(Cc1ccccc1Cl)C1CCCC1`, the kinetic solubility was > 49 µg/mL.

Consider `COc1ccc(NC(=O)c2cc(-c3ccc(C)cc3)on2)cc1OC`, for which the solubility (kinetic) was < 0.4 µg/mL.

For `N#Cc1cccc(NC(=O)CNC(=O)Cc2ccccc2)c1`, the solubility (kinetic) was determined as 42.1 µg/mL (≈ 144 µM).

On to `COc1cc(C(=O)N2CCN(c3ccccn3)CC2)cc(OC)c1OC`, for which the solubility (kinetic) was > 53.6 µg/mL.

Regarding `O=C(O)C(=O)O.c1cncc(CNCCc2ccc3c(c2)OCO3)c1`, the solubility (kinetic) is > 52 µg/mL.

As for `CCCCCCNC1=NCCS1`, the kinetic solubility was determined as 22.9 µg/mL (≈ 123 µM).

`O=C(CSc1ccccn1)Nc1cccc([N+](=O)[O-])c1` displayed a solubility (kinetic) of 38 µg/mL (≈ 131 µM).

In the case of `CN(C(=O)COC(=O)c1ccc2c(c1)OCO2)C1CCCCC1`, the kinetic solubility is > 47.9 µg/mL.

`COc1cc(OC)cc(C(=O)NCC(C)NC(=O)c2cc(OC)cc(OC)c2)c1` (stereo unspecified) showed a solubility (kinetic) of 39.6 µg/mL (≈ 98.4 µM).

As to `CC1(C)C2CCC(C2)C1(C)N=C1OC(CCl)CS1` (stereo unspecified), the kinetic solubility turned out to be 5.9 µg/mL (≈ 20.5 µM).

`COc1ccc(/C=C/C(=O)OCC(=O)NC2CCCC2)cc1OC`: the solubility (kinetic) was determined as 48.6 µg/mL (≈ 146 µM).

For `CCC(C)[C@H](NC(=O)NCc1ccco1)C(=O)OC` (stereo partly specified), the solubility (kinetic) was > 40.2 µg/mL.

The compound `CCN(CC)C(=O)CSc1ncccc1-c1nc2ccccc2[nH]1` displayed a solubility (kinetic) of 17.6 µg/mL (≈ 51.7 µM).

For `CCOC(=O)c1c(C)[nH]c(C(=O)COC(=O)c2ccco2)c1C`, the kinetic solubility worked out at 3.1 µg/mL (≈ 9.71 µM).

On to `CCOC(=O)c1c(C)[nH]c(C)c1C(=O)COC(=O)[C@@H](NC(=O)c1ccco1)C(C)C`, for which the solubility (kinetic) was > 62.8 µg/mL.

`Cc1ccc(C(=O)Cc2nc3ccccc3[nH]2)cc1` displayed a solubility (kinetic) of 30.5 µg/mL (≈ 122 µM).

On to `N/C(=N\OC(=O)Cc1ccccc1[N+](=O)[O-])c1ccccn1`, for which the kinetic solubility was 42.3 µg/mL (≈ 141 µM).

Turning to `COc1ccc(C(=O)O)cc1S(=O)(=O)NC(C)C`, the kinetic solubility was > 41 µg/mL.

Take `CC(C)CCNC(=O)c1cc2c(s1)-c1ccccc1S(=O)(=O)C2`: the kinetic solubility was determined as 2.1 µg/mL (≈ 6.01 µM).

Turning to `N#Cc1c(Cl)nsc1NCCN1CCOCC1`, the solubility (kinetic) is > 40.9 µg/mL.

The compound `CN1CN(C)c2ccc([N+](=O)[O-])c3cccc1c23` had a solubility (kinetic) of 2.1 µg/mL (≈ 8.63 µM).

Regarding `CCNC(=O)C(=O)Nc1cc2c3c(c1)CCN3C(=O)CC2`, the solubility (kinetic) is > 43.1 µg/mL.

Consider `Cc1ccc(NC(=O)CCOc2ccccc2)c(C)c1`, for which the solubility (kinetic) was 20.2 µg/mL (≈ 75 µM).

Take `CSc1nc(-c2ccc(Cl)cc2)c(C#N)c(=O)n1C`: the kinetic solubility was < 0.2 µg/mL.

Compound `Oc1ccc(-c2csc(Nc3ccccn3)n2)cc1O` gave a solubility (kinetic) of 11.3 µg/mL (≈ 39.6 µM).

On to `COc1ccc2nc(-c3ccccn3)[nH]c2c1`, for which the kinetic solubility was 24.8 µg/mL (≈ 110 µM).
